From patent US10301295B2, “Herbicidal compounds” (Syngenta Participations AG, priority 2014, dated 2019)
Like-named read-outs stand apart in the source and are kept apart here.

Experiments:
Type in all cases: in vivo
[1] = tested on: wheat; assay: Post-emergence herbicidal activity against cereal crops (wheat) +/- safener, crop selectivity; conditions: 100%=total damage to plant, 0%=no damage; for Post-emergence herbicidal activity against wheat (percentage phytotoxicity), +CQC: 250 g/ha, plus safener cloquintocet-mexyl (CQC) applied at 50 g/ha; for percent phytotoxicity (crop damage) to wheat at 250 g/ha: Triticum aestivum, 360 h, without safener, read-out: Post-emergence herbicidal activity against wheat (percentage phytotoxicity), Wheat - CQC
Method: Seeds of a variety of monocotyledonous and dicotyledonous test plants are sown in standard soil in pots. The plants are cultivated for one day (for pre-emergence) or for about 12 days (for post-emergence) under controlled conditions in a glasshouse (warm climate species at 24/18° C., cool climate species at 20/16° C., both at day/night; 16 hours light; 65% humidity). The test plants are then grown on, in a glasshouse (greenhouse) under controlled conditions (warm climate species at 24/18° C., cool climate species at 20/16° C., both at day/night; 16 hours light; 65% humidity) and are watered twice daily. 15 days after application of the test herbicide (15DAA) (for post-emergence), and 20 days after application of the test herbicide (20DAA) (for pre-emergence), the test plants are evaluated visually, and an assessed percentage phytotoxicity score is given for each herbicidal application on each plant species (with 100%=total damage to plant; 0%=no damage to plant).

[2] = tested on: Lolium perenne (LOLPE); assay: Glasshouse assay for herbicidal activity, pre-/post-emergence (percentage phytotoxicity); conditions: Lolium perenne, Rate 250 g/ha, 100%=total damage, 0%=no damage
Procedure, shortened: (§1)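 Pre- and post-emergence treatments were applied to potted plants at 1 and ~12 days after sowing respectively. Percentage phytotoxicity was judged visually 20 or 15 days later.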

[3] = tested on: Echinochloa crus-galli (ECHCG); assay: as above; conditions: Echinochloa crus-galli, Rate 250 g/ha, 100%=total damage, 0%=no damage
Procedure, shortened: as §1

[4] = tested on: Alopecurus myosuroides (ALOMY); assay: as above; conditions: Alopecurus myosuroides, Rate 250 g/ha, 100%=total damage, 0%=no damage
Procedure, shortened: as §1

[5] = tested on: Avena fatua (AVEFA); assay: as above; conditions: Avena fatua, Rate 250 g/ha, 100%=total damage, 0%=no damage
Procedure, shortened: as §1

[6] = post-emergence, 360 h, post-emergence, visual assessment 15 DAA, read-out: Post-emergence herbicidal activity (percentage phytotoxicity), LOLPE POST
[7] = pre-emergence, 480 h, pre-emergence, visual assessment 20 DAA, read-out: Pre-emergence herbicidal activity (percentage phytotoxicity), LOLPE PRE
[8] = post-emergence, 360 h, post-emergence, visual assessment 15 DAA, read-out: Post-emergence herbicidal activity (percentage phytotoxicity), ECHCG POST
[9] = pre-emergence, 480 h, pre-emergence, visual assessment 20 DAA, read-out: Pre-emergence herbicidal activity (percentage phytotoxicity), ECHCG PRE
[10] = 360 h, post-emergence, visual assessment 15 DAA, read-out: Post-emergence herbicidal activity (percentage phytotoxicity), ALOMY POST
[11] = 480 h, pre-emergence, visual assessment 20 DAA, read-out: Pre-emergence herbicidal activity (percentage phytotoxicity), ALOMY PRE
[12] = post-emergence, 360 h, post-emergence, visual assessment 15 DAA, read-out: Post-emergence herbicidal activity (percentage phytotoxicity), AVEFA POST
[13] = pre-emergence, 480 h, pre-emergence, visual assessment 20 DAA, read-out: Pre-emergence herbicidal activity (percentage phytotoxicity), AVEFA PRE

Row | SMILES | Post-emergence herbicidal activity against wheat (percentage phytotoxicity), +CQC [1] | percent phytotoxicity (crop damage) to wheat at 250 g/ha [1] | pest or weed control at 250 g/ha [2, 6] | pest or weed control at 250 g/ha [2, 7] | pest or weed control at 250 g/ha [3, 8] | pest or weed control at 250 g/ha [3, 9] | pest or weed control at 250 g/ha [4, 10] | pest or weed control at 250 g/ha [4, 11] | pest or weed control at 250 g/ha [5, 12] | pest or weed control at 250 g/ha [5, 13]
1 | Cc1cc(C)c(C2C(=O)CC(CCNc3nc4ccc(Cl)cc4o3)C2=O)c(C)c1.Cl (stereo not shown) [Compound A35] | 60% | 80% | 100% | 100% | 100% | 80% | 90% | 70% | 70% | 60%
2 | CCS(=O)(=O)NCCC1CC(=O)C(c2c(C)cc(C)cc2C)C1=O (stereo not shown) [Compound A83] | 10% | 80% | 70% | 90% | 70% | 70% | 80% | 90% | 80% | 80%
3 | Cc1cc(C)c(C2C(=O)CC(CCNS(=O)(=O)c3ccc(OC(F)(F)F)cc3)C2=O)c(C)c1 (stereo not shown) [Compound A85] | 10% | 20% | 50% | 80% | 40% | 70% | 60% | 70% | 80% | 80%
4 | Cc1cc(C)c(C2C(=O)CC(CCNC(=O)N(C)c3ccccc3)C2=O)c(C)c1 (stereo not shown) [Compound A8] | 10% | 70% | 90% | 90% | 80% | 90% | 80% | 70% | 90% | 90%
5 | Cc1cc(C)c(C2C(=O)CC(CCNC(=O)Nc3cc(C(C)(C)F)ncn3)C2=O)c(C)c1 (stereo not shown) [Compound A16] | 50% | 80% | 90% | 90% | 80% | 100% | 90% | 80% | 100% | 70%
6 | Cc1cc(C)c(C2C(=O)CC(CCNC(=O)NC(=O)c3ccccc3C#N)C2=O)c(C)c1 (stereo not shown) [Compound A67] | 0% | 0% |  | 20% |  | 30% |  | 0% |  | 0%
7 | Cc1cc(C)c(C2C(=O)CC(CCNC(=O)NC(=O)c3ccccc3F)C2=O)c(C)c1 (stereo not shown) [Compound A54] | 80% | 90% | 100% | 80% | 100% | 80% | 100% | 60% | 100% | 60%
8 | Cc1cc(C)c(C2C(=O)CC(CCNS(=O)(=O)C(C)C)C2=O)c(C)c1 (stereo not shown) [Compound A77] | 10% | 80% | 80% | 80% | 70% | 70% | 80% | 100% | 80% | 70%
